Measured values published in US7074829B2, “Antiestrogens, process for their production and their pharmaceutical use” (Schering AG, priority 1998, dated 2006).

Test system: uterus
Assay: Uterus growth test in infant rats (antiestrogenic action)
Assay type: in vivo, rat
Conditions: inhibition compared to the estradiol benzoate (EB) control

## CC(=O)O[C@H]1CC[C@H]2C[C@@H](c3ccc(O)cc3)[C@@H](c3ccc(OCCCCC[S+]([O-])CCCC(F)(F)C(F)(F)F)cc3)C[C@@]21C (some centres unmarked) [Example 5]
  Antiuterotrophic Action at 0.3 mg s.c. [% Inhibition]: 55 % Inhibition

## C[C@]12C[C@H](c3ccc(OCCCCC[S+]([O-])CCCC(F)(F)C(F)(F)F)cc3)[C@H](c3ccc(O)cc3)C[C@@H]1CC[C@@H]2O (stereo partly drawn) [Example 3, (1S,3S,4R,6S,9S)-9-Hydroxy-4-(4-hydroxyphenyl)-1-methyl-3-[4-(5-(4,4,5,5,5-pentafluoro-pentylsulfinyl)pentyloxy)phenyl]-bicyclo[4.3.0]nonane]
  Antiuterotrophic Action at 0.3 mg s.c. [% Inhibition]: 37 % Inhibition
